Experimental data: patent EP0156091A1, “Beta-oxo-alpha-carbamoyl-pyrrolepropionitriles, processes for their preparation, pharmaceutical compositions comprising these compounds and their therapeutic use” (CIBA-GEIGY AG, priority 1984, dated 1985)

Assays:
Adjuvans-Arthritis = experiment: Adjuvant arthritis test; type: in vivo, Ratte; settings: rat, 25 mg/kg/p.o.
Method: Der übliche Adjuvans-Arthritis-Test für die anti-arthritische Aktivität wird im wesentlichen wie in Proc. Soc. Exp. Biol. Med. 137, 506 (1971) durchgeführt.
Weiter sind die Verbindungen der Erfindung, z.B. die vorher genannten Verbindungen der Beispiele 1, 2 und 3 in dem üblichen Adjuvans- Arthritis-Test an der Ratte bei einer Dosis von 25 mg/kg/p.o. aktiv und sie gewähren einen Schutz von 47%, 58% bzw. 55Z.
Beispiel 13: Der Schutz im üblichen Adjuvans-Arthritis-Test, der im wesentlichen gemäss Proc. Soc. Exp. Biol. Med. 137, 506 (1971) durchgeführt wird, ist wie folgt: […]

[1] = test system: BCG immunisierten Adjuvans-Arthritis-Ratte; experiment: Skin test (delayed hypersensitivity, PPD) in BCG-immunised adjuvant arthritis rat; type: in vivo; settings: 25 mg/kg/p.o.
Source text: Die Erhöhung der durch die Zellen vermittelten Immunität wird in-vivo an der mit BCG-immunisierten arthritischen Ratten durch Messung der Verzögerung der Ueberempfindlichkeitsreaktion, im wesentlichen wie in Current Therapeutic Research 30, S 34 (1981) beschrieben, gemessen.
Männliche Charles River Ratten von einem Gewicht von 325-400 g werden sensibilisiert, indem man jedem Versuchstier in die rechte hintere Pfotensohle […] Mycobacterium tuberculosis (Difco), das in Freund' schem Adjuvans (Freund's incomplete adjuvant) suspendiert ist, injiziert. Die Tiere werden am 18. Tag nach der Adjuvans-Injektion mit 0,1 ml BCG-Vakzine intradermal immunisiert. Die Wirksubstanz wird peroral in einer Maisstärke-Suspension verabreicht. Die Kontrolltiere werden lediglich mit der Maisstärke behandelt. Alle Tiere werden am 29. Tag an der Haut durch intradermale Verabreichung von 10 pg PPD (purified protein derivative) getestet, um Hautreaktionen hervorzurufen. Der Durchmesser des Erythems und die Erhärtungsreaktion werden 24 Stunden nach der Antigen-Behandlung gemessen. Eine […] des Erythem-Durchmessers deutet auf die erhöhte Zellenimmunität hin.

[2] = test system: durch Carrageenin hervorgerufenen Oedem; experiment: Carrageenan paw oedema test; type: in vivo, Ratte; settings: rat
Method: Der Carrageenin-Photenödem-Test in Hinsicht auf die antiinflammatorische Wirkung wird an der Ratte wie folgt durchgeführt: • Eine Stunde nach der oralen Verabreichung der Wirksubstanz wird in die Sohle einer hinteren Pfote 0,1 ml Carrageenin (1%-ig) injiziert. In bestimmten Zeiten wird dann die Differenz der Schwellung zwischen der behandelten und der intakten gegenseitigen Pfote durch Quecksilber-Verdrängung gemessen.
Als Beispiele der Erfindung seien das ß-0xo-a-(phenylcarbamoyl)-ß-(2-pyrrolyl)-propionitril des Beispeils 1 und das ß-0xo-a-(4-chlorphenyl)-ß-(2-pyrrolyl)-propionitril des Beispiels 2 genannt, welche bei einer peroralen Dosis von 100 mg/kg, gegen die durch Carrageenin hervorgerufenen Oedem an der Ratte, 3 Stunden nach der Verabreichung, einen 46 bzw. 63%-igen Schutz gewähren. Analog ergibt das β-Oxo-α-(2,4- difluorphenylcarbamoyl)-ß-(2-pyrrolyl)-propionitril des Beispiels 3, bei einer Dosis von 25 mg/kg/p.o. einen 33%-igen Schutz.

[3] = 100 mg/kg peroral, 3 hours after administration

Compound: N#CC(C(=O)Nc1ccccc1)C(=O)c1ccc[nH]1 (stereo not shown) [Beispiel 1, ß-Oxo-a-(phenylcarbamoyl)-ß-(2-pyrollyl)-propionitril]
- Schutz im Adjuvans-Arthritis-Test (Adjuvans-Arthritis): 47%
- Wirkung im Haut-Test (immunopotenzierende Wirkung) [1]: signifikante Wirkung
- Schutz gegen die durch Carrageenin hervorgerufenen Oedem [2, 3]: 46%

Compound: N#CC(C(=O)Nc1ccc(Cl)cc1)C(=O)c1ccc[nH]1 (stereo not drawn) [Beispiel 2, β-Oxo-α-(4-chlorphenylcarbamoyl)-ß-(2-pyrrolyl)-propionitril]
- Schutz im Adjuvans-Arthritis-Test (Adjuvans-Arthritis): 58%
- Wirkung im Haut-Test (immunopotenzierende Wirkung) [1]: signifikante Wirkung
- Schutz gegen die durch Carrageenin hervorgerufenen Oedem [2, 3]: 63%

Compound: N#CC(C(=O)Nc1ccc(F)cc1F)C(=O)c1ccc[nH]1 (stereo not shown) [Beispiel 3, ß-0xo-a-(2,4-difluorphenylcarbamoyl)-ß-(2-pyrrolyl)-propionitril]
- Schutz gegen die durch Carrageenin hervorgerufenen Oedem ([2]; 25 mg/kg/p.o.): 33%
